# Measured values: US9090594B2, “PIM kinase inhibitors and preparation methods and use in medicinal manufacture thereof” (JIKAI BIOSCIENCES, INC., priority 2011, dated 2015)
# Target: T1, PIM-1 (Homo sapiens, UniProt P11309)
# T1 construct: purchased Millipore Corporation 14-573
# Assay: PIM Kinase Activity Assay-IMAP Fluorescence Polarization Assay (PIM-1)
# Format: biochemical
# Settings: 3 μM concentration
# Protocol: In the present invention, the PIM activities of the compounds were tested by BioDuro (Building E, No. 29 Life Science Park Road, Changping District, Beijing, 102206, P.R. China). The method used for testing is PIM Kinase Activity Assay-IMAP Fluorescence Polarization Assay
# PIM Kinase Activity Assay-IMAP Fluorescence Polarization Assay
# PIM Is a serine/threonine protein kinase, they can phosphorylate 5-FAM labeled small peptide substrates. Fluorescence polarization is less for non-phosphorylated substrates since that can not bind to the binder (metal binding nanoparticles). On the other hand, fluorescence polarization is more for phosphorylated substrates since that can bind to the binder. The level of 5-FAM labeled small peptide substrates phosphorylation reflects the activities of PIM kinase. By measuring their ability of inhibiting PIM kinase of the compounds of the present invention, their activities of inhibiting PIM kinases can be determined.
# EnVision (PerkinElmer, Waltham, Mass.)
# PIM1 (Millipore Cat. #14-573) (Millipore Corporation, Billerica, Mass.)
# 5-FAM labeled peptide (5-FAM-RSRHSSYPAGT, AnaSpec Cat.#63801) (AnaSpec Inc., Fremont, Calif.)
# IMAP FP Screening Express kit (IMAP FP Screening kit) (Molecular Devices Cat.# R8127) (Molecular Devices, Sunnyvale, Calif.)
# a) 10 mM compound stock solution is diluted to appropriate concentration with 100% DMSO, then diluted 10 fold to targeted concentration with test butter to keep DMSO concentration at 10%
# 1 ul of compound solution and 4 ul of enzyme (PIM-1final concentration 0.025 nM, PIM-2 concentration 3 nM) is incubated at 23° C. for 15 min, 2.5 ul ATP (for PIM-1 and PIM-2, the final ATP concentrations are 30 uM and 5 uM respectively) 2.5 ul 5-FAM labeled peptide (final concentration 100 nM) was added to start the reaction. The reaction is run at 23° C. for 60 min. DMSO is used in place of compound stock solution as maximum reference and assay buffer is used in place of enzyme as minimum reference. c) add 30 ul IMAP binding reagent (containing 75% IMAP Buffer A, 25% IMAP Buffer B, 1/600 dilution of beads) to stop the reaction, incubated at room temperature for 60 min d) Measure fluorescence polarization, excitation wavelength: 485 nm, emission wavelength 530 nm. 6. Data Process IC50 values were calculated using Graphpad Prism®.
# T1 sequence (P11309 whole entry): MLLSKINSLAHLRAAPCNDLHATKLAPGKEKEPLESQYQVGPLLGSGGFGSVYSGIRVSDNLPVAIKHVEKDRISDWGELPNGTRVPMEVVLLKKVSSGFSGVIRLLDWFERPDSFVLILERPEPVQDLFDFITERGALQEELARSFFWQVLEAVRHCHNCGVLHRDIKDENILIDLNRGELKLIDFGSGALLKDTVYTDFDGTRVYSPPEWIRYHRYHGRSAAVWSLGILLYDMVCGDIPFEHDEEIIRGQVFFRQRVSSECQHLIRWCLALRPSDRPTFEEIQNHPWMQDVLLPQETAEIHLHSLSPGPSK
row,inhibition at 3 µM,Structure (SMILES)
1,20 to 50%,"CC(C)c1nc(C(=O)Nc2cncnc2OC2CCNCC2)cs1 [Compound 33, 2-isopropyl-N-(4-(piperidin-4-yloxy)pyrimidin-5-yl)thiazole-4-carboxamide]"
2,20 to 50%,"O=C(Nc1cncnc1OC1CCNCC1)c1coc(-c2c(F)cccc2F)n1 [Compound 57, 2-(2,6-difluorophenyl)-N-(4-(piperidin-4-yloxy)pyrimidin-5-yl)oxazole-4-carboxamide]"
3,20 to 50%,"O=C(Nc1cncnc1OC1CCNCC1)c1csc(C2CCNCC2)n1 [Compound 59, 2-(piperidin-4-yl)-N-(4-(piperidin-4-yloxy)pyrimidin-5-yl)thiazole-4-carboxamide]"
4,20 to 50%,"O=C(Nc1cncnc1OC1CCNCC1)c1csc(N2CCOCC2)n1 [Compound 60, 2-morpholino-N-(4-(piperidin-4-yloxy)pyrimidin-5-yl)thiazole-4-carboxamide]"
5,20 to 50%,"O=C(Nc1cncnc1OC1CCNCC1)c1csc(N2CCCCC2)n1 [Compound 61, 2-(piperidin-1-yl)-N-(4-(piperidin-4-yloxy)pyrimidin-5-yl)thiazole-4-carboxamide]"
6,20 to 50%,"CC(=O)Nc1nc(C(=O)Nc2cncnc2OC2CCNCC2)cs1 [Compound 62, 2-acetamido-N-(4-(piperidin-4-yloxy)pyrimidin-5-yl)thiazole-4-carboxamide]"
7,20 to 50%,"Nc1sc(-c2c(F)cccc2F)nc1C(=O)Nc1cncnc1S(=O)(=O)CCCO [Compound 63, 5-amino-2-(2,6-difluorophenyl)-N-(4-((3-hydroxypropyl)sulfonyl)pyrimidin-5-yl)thiazole-4-carboxamide]"
